# From paper PMC8773213, “In Vitro Anticancer Activity and Mechanism of Action of an Aziridinyl Galactopyranoside” (Biomedicines, 2021)
# Tests used:
# [1] = system: MRC-5 (Human lung non-malignant cells); test: Resazurin cell viability assay, MRC-5; assay type: cell-based; conditions: MRC5, 72 h, read-out: IC50 (Mean ± SEM, µM), MRC-5
# Description: (§1) Exponentially growing cells were seeded in 96-well plates and allowed to attach and grow for 24 h. The cells were then treated with increasing concentrations of the tested drugs. At the end of the treatment period, cell viability was measured with the MTT assay or the resazurin assay, two widely used techniques.
# (§2) The resazurin assay is a redox-based colorimetric/fluorometric technique based on the ability of viable cells to reduce the blue compound resazurin into the pink, fluorescent and soluble product resorufin. The amount of resorufin produced is generally proportional to the number of living cells. In this assay, 24 h after seeding, cells were exposed to the tested drugs for 72 h. Then 100 μL resazurin in medium was added to each well (final concentration of 10 μg/mL) and, one hour later the fluorescence intensity was measured at 530/590 nm (excitation/emission) using a fluorescence microplate reader.
# (§3) In both assays, cell viability was expressed as percentage compared to untreated cells. Results were expressed as the means ± standard error of the mean (SEM). All data are from at least three independent experiments.
# [2] = system: UV4 cells (mutated in ERCC1, NER deficient); test: MTT cell viability assay, UV4 cells; assay type: cell-based, Chinese hamster
# Description: as §1
# (§4) In the case of the MTT assay, this technique detects viable cells using the ability of these cells to reduce the yellow tetrazolium MTT to an insoluble colored formazan product. Subsequently, this product was solubilized and analyzed by spectrophotometry. Dead cells cannot reduce the MTT into the colored formazan product. Briefly, 24 h after plating, cells were treated with the tested compounds for 48 h; except in experiments with DNA repair-proficient and -deficient cell lines, in which cells were only exposed for 24 h to drugs and allowed to grow for an additional 48 h in drug-free medium to allow them to repair possible DNA damage induced by the tested drugs. […] Finally, plates were incubated overnight at 37 °C and optical densities were measured at 540 nm using an absorbance spectrophotometer microplate reader.
# (§5) In both assays, cell viability was expressed as percentage compared to untreated cells. Results were expressed as the means ± standard error of the mean (SEM). […]
# [3] = system: BJ-hTERT (hTERT-immortalized skin non-malignant BJ cells); test: Resazurin cell viability assay, BJ-hTERT; assay type: cell-based; conditions: Homo sapiens, 72 h, read-out: IC50 (Mean ± SEM, µM), BJ-hTERT
# Description: as §1, §2, §3
# [4] = system: UV5 cells (mutated in ERCC2 (XPD), NER deficient); test: MTT cell viability assay, UV5 cells; assay type: cell-based, Chinese hamster; conditions: Cricetulus griseus, 24 h exposure, then 48 h in drug-free medium, read-out: IC50 (means ± SEM), UV5 cells
# Description: as §1, §4, §5
# [5] = system: U2OS (Human osteosarcoma cells); test: Resazurin cell viability assay, U2OS; assay type: cell-based; conditions: 72 h, read-out: IC50 (Mean ± SEM, µM), U2OS
# Description: as §1, §2, §3
# [6] = system: SW480 (Human colon adenocarcinoma cells); test: Resazurin cell viability assay, SW480; assay type: cell-based; conditions: 72 h, read-out: IC50 (Mean ± SEM, µM), SW480
# Description: as §1, §2, §3
# [7] = system: AA8 cells; test: Comet assay (DNA damage); assay type: cell-based, Chinese hamster; conditions: 4 h
# From the text: The single cell gel electrophoresis assay, also known as comet assay, is a widely used technique for the study of levels of damage in cellular DNA. In this assay, individual cells embedded in agarose are lysed, electrophoresed, stained with a fluorescent dye and examined under an epifluorescence microscope. […] The quantity of DNA present in the tail is indicative of DNA damage. This assay has been described in detail by Singh et al.. We followed this protocol with minor modifications previously described. Briefly, standard slides were immersed in 1% normal melting agarose at 55 °C, left to allow the agarose to solidify and kept at 4 °C until use. Cells were seeded in 6-well plates, allowed to grow for 24 h and then cells were exposed to AzGalp or CTP (positive control) for 4 h. At the end of the treatment, cells were harvested by trypsinization, washed with PBS and resuspended in PBS at a concentration of approximately 1 million cells/mL; 10 µL cell suspension was mixed with 85 μL of low-melting agarose (LMA) at 37 °C and the mixture was quickly added to the slides with the first layer of agarose, spread using a coverslip and kept at 4 °C for 8 min to allow the LMA to solidify. The coverslips were then removed and another layer of 100 μL of LMA at 37 °C was added, covered with a coverslip and allowed to solidify at 4 °C for 8 min. After removing the coverslips, the slides were incubated in the dark for 1 h at 4 °C in a lysis buffer (pH 10.0) containing 0.25 M NaOH, 10% DMSO, 1% Triton X-100, 10 mM Tris-HCl, 100 mM Na2-EDTA and 2.5 M NaCl. Next, alkaline denaturation with electrophoretic buffer (300 mM NaOH and 1 mM Na2-EDTA) was carried out in an electrophoresis chamber for 20 min and then electrophoresis was performed at 1 V/cm for 20 min. […] DNA damage levels were quantified for each cell and expressed as percent of DNA in the tail and as the tail moment (defined as the product of the tail length and the fraction of total DNA in the tail). The results were averaged from two independent experiments and expressed as mean ± SEM.
# [8] = system: BJ-RASV12 (HRASV12-transformed BJ-SV40T cells); test: Resazurin cell viability assay, BJ-RASV12; assay type: cell-based, human; conditions: 72 h
# Description: as §1, §2, §3
smiles,measurement,setting,value
"Cc1ccc(S(=O)(=O)N2CC2(C)CO[C@@H]2O[C@@H]3CO[C@H](c4ccccc4)O[C@@H]3[C@H](OCc3ccccc3)[C@H]2OCc2ccccc2)cc1 (stereo partly drawn) [AzGalp, 2-methyl-2,3-[N-(4-methylbenzenesulfonyl)imino]propyl 2,3-di-O-benzyl-4,6-O-(S)-benzylidene-β-D-galactopyranoside]",IC50,[1],341 ± 85 µM
same,IC50,"[2]; Cricetulus griseus, UV4, 24 h exposure, then 48 h in drug-free medium, read-out: IC50 (means ± SEM), UV4 cells",58.6 ± 9.3 µM
same,Sensitivity of NER-deficient cells relative to NER-proficient cells,[2]; UV4 and UV5 versus AA8,approximately six times more sensitive
same,IC50,[3],209 ± 24.2 µM
same,IC50,[4],38.6 ± 6.3 µM
same,IC50,[5],120 ± 8 µM
same,IC50,[6],388 ± 30.9 µM
same,Level of DNA damage in comet assay,[7]; 50 µM AzGalp versus 10 µM CPT,lower than that of the DNA-damaging agent CPT
same,Cells with higher levels of DNA damage than untreated cells,[7]; 50 µM,approximately 30%
same,Sensitivity of BJ-RASV12 malignant cells relative to BJ-hTERT non-malignant cells,[8]; resazurin,three times more sensitive
same,IC50,"[8]; Homo sapiens, resazurin assay, read-out: IC50 (Mean ± SEM, µM), BJ-RASV12",76.3 ± 17.8 µM
